The values that follow come from patent US12606566B2, “Substituted cyclopenta[4,5]pyrrolo[1,2-a]pyrazines as bruton's tyrosine kinase inhibitors” (Shanghai Synergy Pharmaceutical Sciences Co., Ltd., priority 2020, dated 2026).

One assay deals with BTK kinase (Homo sapiens, UniProt Q06187). Put plainly: BTK kinase inhibitory activity, mobility shift method. To be noted: compound co-incubated with the enzyme for 30 minutes. It counts as biochemical. As to the method:
The BTK kinase inhibitory activity of the compound was determined using a mobility shift method with the reaction system (kinase solution, ATP, kinase substrate2). The compound was co-incubated with the enzyme for 30 minutes, and then the conversion rate was read using the Caliper EZ reader. The compound inhibition rate was determined using the calculation formula and the data was fitted using Graphpad to derive the IC50 value for the compounds of this application.

In assay [1] the test system is tumour cells (A20 5E6 cells). Put plainly: Inhibitory effect on tumour cell proliferation (CCK8). It counts as cell-based. Particulars: CCK8 absorbance, read-out: Inhibitory effect of the compound on cell proliferation IC50. As to the method:
This experiment was to determine the effect of the compound on cell proliferation.
To determine the inhibitory effect of the compound on the proliferation of tumour cells, tumour cells (A20 5E6 cells) were cultured to a certain amount and seeded into 96-well plates. […] The absorbance value was measured after the addition of CCK8 and 2 h incubation to determine the inhibitory effect of the compound on cell proliferation. The IC50 value of the compound was obtained by data fitted with Graphpad.

Chain of BTK kinase (Q06187 whole entry): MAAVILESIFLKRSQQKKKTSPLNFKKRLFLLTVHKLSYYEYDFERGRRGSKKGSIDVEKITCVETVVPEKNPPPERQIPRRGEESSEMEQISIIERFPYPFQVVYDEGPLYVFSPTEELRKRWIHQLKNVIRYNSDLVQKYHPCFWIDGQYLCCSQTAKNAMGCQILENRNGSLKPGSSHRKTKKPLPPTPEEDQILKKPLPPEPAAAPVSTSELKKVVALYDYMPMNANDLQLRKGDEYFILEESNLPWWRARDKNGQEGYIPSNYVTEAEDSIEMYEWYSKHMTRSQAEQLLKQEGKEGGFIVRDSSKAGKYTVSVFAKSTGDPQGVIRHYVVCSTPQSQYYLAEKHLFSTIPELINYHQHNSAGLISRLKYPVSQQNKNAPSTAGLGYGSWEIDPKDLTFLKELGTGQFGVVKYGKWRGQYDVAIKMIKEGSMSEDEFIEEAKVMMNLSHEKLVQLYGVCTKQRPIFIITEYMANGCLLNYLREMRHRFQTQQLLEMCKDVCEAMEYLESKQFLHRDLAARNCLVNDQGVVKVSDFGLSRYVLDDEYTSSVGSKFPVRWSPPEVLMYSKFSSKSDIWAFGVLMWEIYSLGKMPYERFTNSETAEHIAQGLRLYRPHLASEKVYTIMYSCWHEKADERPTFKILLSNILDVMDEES

In the case of `CN1CCN(c2ccc(Nc3cc(-c4ccnc(N5CCn6c7c(c(F)c6C5=O)CC(C)(C)C7)c4CO)cn(C)c3=O)nc2)CC1` [Example H14, 9-fluoro-2-(3′-(hydroxymethyl)-1-methyl-5-((5-(4-methylpiperazin-1-yl)pyridin-2-yl)amino)-6-oxo-1,6-dihydro-[3,4′-bipyridin]-2′-yl)-7,7-dimethyl-3,4,7,8-tetrahydro-2H-cyclopenta[4,5]pyrrolo[1,2-a]pyrazin-1(6H)-one], the IC50 at BTK kinase is 0.27 nM; in assay [1] it was 47 nM.

Turning to `CC(C)n1cc(-c2ccnc(N3CCn4c(cc5c4CC(C)(C)C5)C3=O)c2CO)cc(Nc2ccc(N3CCN(C4COC4)C[C@@H]3C)cn2)c1=O` [Example H04, (S)-2-(3′-(hydroxymethyl)-1-isopropyl-5-((5-(2-methyl-4-(oxetan-3-yl)piperazin-1-yl)pyridin-2-yl)amino)-6-oxo-1,6-dihydro-[3,4′-bipyridin]-2′-yl)-7,7-dimethyl-3,4,7,8-tetrahydro-2H-cyclopenta[4,5]pyrrolo[1,2-a]pyrazin-1(6H)-one], the IC50 at BTK kinase was 0.26 nM; in assay [1], 26 nM.

In the case of `Cn1cc(-c2ccnc(N3CCn4c5c(c(F)c4C3=O)CC(C)(C)C5)c2CO)cc(Nc2ccc(N3CCC4(CC3)COC4)cn2)c1=O` [Example H11, 2-(5-((5-(2-oxa-7-azaspiro[3.5]nonan-7-yl)pyridin-2-yl)amino)-3′-(hydroxymethyl)-1-methyl-6-oxo-1,6-dihydro-[3,4′-bipyridin]-2′-yl)-9-fluoro-7,7-dimethyl-3,4,7,8-tetrahydro-2H-cyclopenta[4,5]pyrrolo[1,2-a]pyrazin-1(6H)-one], the results for the IC50 (on BTK kinase; in assay [1]) were 0.26 nM and 13 nM, respectively.

As for `CC1(C)Cc2cc3n(c2C1)CCN(c1nccc(-c2cc(Nc4ccc(N5CCN(C6COC6)CC5)cn4)c4occc4n2)c1CO)C3=O` [Example H09, 2-(3-(hydroxymethyl)-4-(7-((5-(4-(oxetan-3-yl)piperazin-1-yl)pyridin-2-yl)amino)furo[3,2-b]pyridin-5-yl)pyridin-2-yl)-7,7-dimethyl-3,4,7,8-tetrahydro-2H-cyclopenta[4,5]pyrrolo[1,2-a]pyrazin-1(6H)-one], the IC50 was found to be 0.71 nM at BTK kinase and 31 nM in assay [1].

Turning to `Cn1cc(-c2ccnc(N3CCn4c5c(c(F)c4C3=O)CC(C)(C)C5)c2CO)cc(Nc2ccc(N3CCC4(CC3)CC(O)C4)cn2)c1=O` [Example H13, 9-fluoro-2-(5-((5-(2-hydroxy-7-azaspiro[3.5]nonan-7-yl)pyridin-2-yl)amino)-3′-(hydroxymethyl)-1-methyl-6-oxo-1,6-dihydro-[3,4′-bipyridin]-2′-yl)-7,7-dimethyl-3,4,7,8-tetrahydro-2H-cyclopenta[4,5]pyrrolo[1,2-a]pyrazin-1(6H)-one], the results for the IC50 (at BTK kinase; in assay [1]) were 0.18 nM and 19 nM, respectively.

Turning to `C[C@H]1CN(C2COC2)CCN1c1ccc(Nc2cc(-c3ccnc(N4CCn5c6c(c(F)c5C4=O)CC(C)(C)C6)c3CO)cn(C)c2=O)nc1` [Example H01, (S)-9-fluoro-2-(3′-(hydroxymethyl)-1-methyl-5-((5-(2-methyl-4-(oxetan-3-yl)piperazin-1-yl)pyridin-2-yl)amino)-6-oxo-1,6-dihydro-[3,4′-bipyridin]-2′-yl)-7,7-dimethyl-3,4,7,8-tetrahydro-2H-cyclopenta[4,5]pyrrolo[1,2-a]pyrazin-1(6H)-one], the results for the IC50 (at BTK kinase; in assay [1]) were 0.23 nM and 24 nM, respectively.

`C[C@H]1CN(C2COC2)CCN1c1ccc(Nc2cc(-c3c(C#N)ccc(N4CCn5c(cc6c5CC(C)(C)C6)C4=O)c3CO)cn(C)c2=O)nc1` [Example H07, (S)-4-(7,7-dimethyl-1-oxo-1,3,4,6,7,8-hexahydro-2H-cyclopenta [4,5]pyrrolo[1,2-a]pyrazin-2-yl)-3-(hydroxymethyl)-2-(1-methyl-5-((5-(2-methyl-4-(oxetan-3-yl)piperazin-1-yl)pyridin-2-yl)amino)-6-oxo-1,6-dihydropyridin-3-yl) benzonitrile]: the IC50 at BTK kinase is 0.38 nM; in assay [1], 40 nM.
